From ChEMBL document CHEMBL1143433, “Interaction of kendomycin and semi-synthetic analogues with the anti-apoptotic protein Bcl-xl” (Bioorg Med Chem Lett, 2008)
In brackets after ≈: the same amount, converted by molar mass.

Columns and labels:
[1] = target: T1, Bcl-2-like protein 1 (Homo sapiens, UniProt Q07817); test: Inhibition of interaction between GST-tagged Bcl-xl and Bak by fluorescence polarization assay
[2] = system: A549; test: Cytotoxicity against human A549 cells; type: functional, cell-based
[3] = target: T1, Bcl-2-like protein 1; test: Inhibition of interaction between Bcl-xl and Bak by surface plasmon resonance assay
[4] = target: T1, Bcl-2-like protein 1; test: Inhibition of interaction between GST-tagged Bcl-xl and Bak by surface plasmon resonance assay
[5] = Chemical stability assessed as half life by HPLC; type: physicochemical
[6] = system: HepG2; test: Cytotoxicity against human HepG2 cells; type: functional
[7] = system: Staphylococcus aureus; test: Antibacterial activity against methicillin-resistant Staphylococcus aureus STA MU50; type: functional

T1 sequence (Q07817 whole entry): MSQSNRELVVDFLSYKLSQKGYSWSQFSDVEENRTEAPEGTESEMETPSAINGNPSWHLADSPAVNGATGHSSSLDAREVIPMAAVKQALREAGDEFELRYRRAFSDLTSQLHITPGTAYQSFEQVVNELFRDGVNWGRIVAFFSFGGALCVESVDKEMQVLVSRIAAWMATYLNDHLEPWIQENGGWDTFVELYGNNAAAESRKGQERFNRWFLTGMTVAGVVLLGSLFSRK

IC50 [1]	half-life [5]	Emax [1]	IC50 ([1]; read-out: IC50)	Kd [3]	Structure (SMILES)	IC50 [2]	Kd ([3]; read-out: Kd)	Kd [4]	GI50 [6]	MIC [7]
Not Active	–	–	–	–	CO[C@@]12C=C3C(=C(C)C(=O)C(O)=C3[C@@H]3O[C@H](CC[C@H](C)/C=C(\C)C[C@@H](C)C[C@@H]1C)[C@H](C)[C@H](O)[C@H]3C)O2	9 µM	–	–	–	–
–	–	–	–	–	Cc1cc2c(C(C)C)c(O)c(O)c(C=O)c2c(O)c1-c1c(C)cc2c(C(C)C)c(O)c(O)c(C=O)c2c1O [GOSSYPOL]	–	338 µM	1.71 µM	–	–
–	< 39 h	22%	9.5 µM	–	CC1=C2O[C@]34OC(C)(C)O[C@@H]3C2=C(C(=O)C1=O)[C@@H]1O[C@H](CC[C@H](C)/C=C(\C)C[C@@H](C)C[C@@H]4C)[C@H](C)[C@H](O)[C@H]1C	14 µM	–	–	–	–
–	< 23 h	66%	5 µM	–	CC1=C2O[C@]34OC5(CCN(C)CC5)O[C@@H]3C2=C(C(=O)C1=O)[C@@H]1O[C@H](CC[C@H](C)/C=C(\C)C[C@@H](C)C[C@@H]4C)[C@H](C)[C@H](O)[C@H]1C	14 µM	399 µM	377 µM	–	–
–	–	35%	230 µM	Not Active	CC1=C(O)C(=O)C2=C(C1=O)C(O)C(=O)[C@@H](C)C[C@H](C)C/C(C)=C/[C@@H](C)CC[C@H]1O[C@@H]2[C@H](C)[C@@H](O)[C@H]1C (some centres undefined)	25 µM	–	10800 µM	–	–
Not Active	–	–	–	–	CC1=C2O[C@]34OC5(CCCCC5)O[C@@H]3C2=C(C(=O)C1=O)[C@@H]1O[C@H](CC[C@H](C)/C=C(\C)C[C@@H](C)C[C@@H]4C)[C@H](C)[C@H](O)[C@H]1C	24 µM	–	–	–	–

Structure (SMILES)	IC50 [1]	half-life [5]	Emax [1]	IC50 ([1]; read-out: IC50)	Kd [3]	IC50 [2]	Kd ([3]; read-out: Kd)	Kd [4]	GI50 [6]	MIC [7]
CC1=C2O[C@]3(O)C=C2C(=C(O)C1=O)[C@@H]1O[C@H](CC[C@H](C)/C=C(\C)C[C@@H](C)C[C@@H]3C)[C@H](C)[C@H](O)[C@H]1C [KENDOMYCIN]	–	< 2 h	70%	12.3 µM	–	16 µM	1830 µM	528 µM	< 0.1 µM	3.9 µM (≈ 1.9 µg/mL)
